Measured values: ChEMBL document CHEMBL1909046, “DrugMatrix in vitro pharmacology data”

Columns and labels:
[1] = biological target: Sigma non-opioid intracellular receptor 1 (Homo sapiens, UniProt Q99720); experiment: DRUGMATRIX: Sigma1 radioligand binding (ligand: [3H] Haloperidol); type: cell membranes, Jurkat, Membrane; details: jurkat; Not Active = under 50% inhibition at 10 µM
[2] = DRUGMATRIX: Calcium Channel Type L, Phenylalkylamine radioligand binding (ligand: [3H] (-)-Desmethoxyverapamil (D-888)); type: cell membranes, Rattus norvegicus, Wistar, Brain, Membrane; details: Not Active = under 50% inhibition at 10 µM
Cannabinoid receptor 1 = Cannabinoid receptor 1 (Homo sapiens, UniProt P21554); type: cell membranes, Chem-1, Membrane; details: chem-1; also: in other assays of this panel Not Active means under 50% inhibition at 10 µM
[3] = biological target: T1, Angiotensin-converting enzyme (Oryctolagus cuniculus, UniProt P12822); type: tissue-based, Lung;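 also: enzymatic inhibition of angiotensin-converting enzyme measured with FAPGG as the substrate; in other assays of this panel Not Active means under 50% inhibition at 10 µM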
T1 sequence (P12822 whole entry): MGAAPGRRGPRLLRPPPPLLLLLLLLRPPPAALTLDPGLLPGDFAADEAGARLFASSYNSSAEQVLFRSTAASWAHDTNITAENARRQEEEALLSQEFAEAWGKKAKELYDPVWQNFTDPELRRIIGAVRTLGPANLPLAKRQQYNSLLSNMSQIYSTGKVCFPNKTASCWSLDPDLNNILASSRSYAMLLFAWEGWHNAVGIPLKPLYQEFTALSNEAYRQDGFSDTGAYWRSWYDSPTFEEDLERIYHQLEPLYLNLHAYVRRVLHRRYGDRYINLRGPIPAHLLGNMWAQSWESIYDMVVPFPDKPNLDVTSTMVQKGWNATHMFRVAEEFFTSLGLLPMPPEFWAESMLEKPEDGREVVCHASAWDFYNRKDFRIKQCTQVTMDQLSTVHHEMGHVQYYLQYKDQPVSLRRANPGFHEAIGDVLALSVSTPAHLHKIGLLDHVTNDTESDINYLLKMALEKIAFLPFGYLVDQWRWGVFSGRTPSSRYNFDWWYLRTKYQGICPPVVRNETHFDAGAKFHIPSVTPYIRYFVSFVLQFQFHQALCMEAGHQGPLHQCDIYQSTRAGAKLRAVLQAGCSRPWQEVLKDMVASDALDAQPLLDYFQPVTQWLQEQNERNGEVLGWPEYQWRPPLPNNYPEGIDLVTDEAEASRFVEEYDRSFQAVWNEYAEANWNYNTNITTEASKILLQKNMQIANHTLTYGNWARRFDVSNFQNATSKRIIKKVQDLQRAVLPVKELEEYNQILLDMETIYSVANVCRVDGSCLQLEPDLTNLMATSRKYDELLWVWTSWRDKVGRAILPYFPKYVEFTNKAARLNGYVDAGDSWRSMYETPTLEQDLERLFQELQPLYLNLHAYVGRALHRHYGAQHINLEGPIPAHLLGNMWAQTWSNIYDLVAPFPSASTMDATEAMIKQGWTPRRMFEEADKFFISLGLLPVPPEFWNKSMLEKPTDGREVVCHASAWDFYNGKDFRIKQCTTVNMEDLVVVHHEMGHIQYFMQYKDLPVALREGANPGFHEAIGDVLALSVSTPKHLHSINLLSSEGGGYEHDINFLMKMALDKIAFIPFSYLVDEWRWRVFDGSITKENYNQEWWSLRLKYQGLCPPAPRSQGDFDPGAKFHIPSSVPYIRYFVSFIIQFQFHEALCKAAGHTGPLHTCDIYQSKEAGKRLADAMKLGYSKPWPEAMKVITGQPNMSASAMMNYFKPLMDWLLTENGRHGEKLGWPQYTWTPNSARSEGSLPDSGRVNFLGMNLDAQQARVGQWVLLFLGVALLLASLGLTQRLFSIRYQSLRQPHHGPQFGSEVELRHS

[4] = biological target: Protein phosphatase 3 catalytic subunit alpha (Homo sapiens, UniProt Q08209); design: species or system Escherichia coli;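 also: inhibition of calcineurin (PP2B) enzyme activity, measured with DiFMUP as the substrate; in other assays of this panel Not Active means under 50% inhibition at 10 µM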
Adenosine receptor A2a = Adenosine receptor A2a (Homo sapiens, UniProt P29274); experiment: DRUGMATRIX: Adenosine A2A radioligand binding (ligand: […]); type: cell membranes, HEK293, Membrane; details: hek293; Not Active = under 50% inhibition at 10 µM
Adenosine receptor A2a, sequence (P29274 whole entry): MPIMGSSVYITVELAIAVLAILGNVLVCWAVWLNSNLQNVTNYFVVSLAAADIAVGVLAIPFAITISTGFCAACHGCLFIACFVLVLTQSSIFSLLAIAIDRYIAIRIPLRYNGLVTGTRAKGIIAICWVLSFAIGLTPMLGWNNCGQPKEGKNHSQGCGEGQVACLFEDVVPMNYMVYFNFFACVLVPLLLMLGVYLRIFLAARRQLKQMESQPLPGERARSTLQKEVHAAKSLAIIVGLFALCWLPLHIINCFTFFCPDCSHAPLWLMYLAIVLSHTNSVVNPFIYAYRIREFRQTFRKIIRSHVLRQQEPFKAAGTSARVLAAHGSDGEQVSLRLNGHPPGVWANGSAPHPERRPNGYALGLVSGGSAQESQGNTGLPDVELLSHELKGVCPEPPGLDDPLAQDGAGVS

Sigma non-opioid intracellular receptor 1, sequence (Q99720 whole entry): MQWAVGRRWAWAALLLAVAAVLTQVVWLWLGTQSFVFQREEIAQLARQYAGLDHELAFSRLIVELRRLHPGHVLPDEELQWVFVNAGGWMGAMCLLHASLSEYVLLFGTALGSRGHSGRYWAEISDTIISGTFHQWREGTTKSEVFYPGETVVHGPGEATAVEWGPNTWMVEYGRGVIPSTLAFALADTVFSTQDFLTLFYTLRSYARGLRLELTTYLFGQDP
Cannabinoid receptor 1, sequence (P21554 whole entry): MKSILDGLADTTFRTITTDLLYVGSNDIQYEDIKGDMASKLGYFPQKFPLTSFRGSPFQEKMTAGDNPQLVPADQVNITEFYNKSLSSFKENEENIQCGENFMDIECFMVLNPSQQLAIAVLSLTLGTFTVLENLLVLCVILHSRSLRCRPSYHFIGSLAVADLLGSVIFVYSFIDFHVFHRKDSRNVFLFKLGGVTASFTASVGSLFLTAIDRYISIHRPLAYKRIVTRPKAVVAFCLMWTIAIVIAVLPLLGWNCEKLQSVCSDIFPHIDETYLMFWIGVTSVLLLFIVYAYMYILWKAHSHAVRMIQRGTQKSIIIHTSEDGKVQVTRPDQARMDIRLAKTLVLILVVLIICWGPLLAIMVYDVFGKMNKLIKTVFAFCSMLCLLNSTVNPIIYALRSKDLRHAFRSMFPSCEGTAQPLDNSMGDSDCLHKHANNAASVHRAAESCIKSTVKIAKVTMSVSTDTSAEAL

CCOc1nc2cccc(C(=O)O)c2n1Cc1ccc(-c2ccccc2-c2nnn[nH]2)cc1
Not Active: IC50 [1] | IC50 [2] | Ki [2] | IC50 (Cannabinoid receptor 1) | IC50 [3] | IC50 [4] | IC50 (Adenosine receptor A2a)

O=C(O)CCCc1cccs1
Not Active: IC50 [1] | IC50 [2] | Ki [2] | IC50 (Cannabinoid receptor 1) | IC50 [3] | IC50 [4] | IC50 (Adenosine receptor A2a)

COc1ccccc1N
Not Active: IC50 [1] | IC50 [2] | Ki [2] | IC50 (Cannabinoid receptor 1) | IC50 [3] | IC50 [4] | IC50 (Adenosine receptor A2a)

O=C(c1ccccc1F)N1CCC(Cc2ccccc2)CC1
Not Active: IC50 [1] | IC50 [2] | Ki [2] | IC50 (Cannabinoid receptor 1) | IC50 [3] | IC50 [4] | IC50 (Adenosine receptor A2a)

Cc1c(O)cccc1C(=O)N[C@@H](CSc1ccccc1)[C@H](O)CN1C[C@H]2CCCC[C@H]2C[C@H]1C(=O)NC(C)(C)C
17.9 µM: Ki ([2]; read-out: Ki)
18.4 µM: IC50 ([2]; read-out: IC50)
Not Active: IC50 [1] | IC50 (Cannabinoid receptor 1) | IC50 [3] | IC50 [4] | IC50 (Adenosine receptor A2a)

CC(O)COC[C@H]1O[C@@H]2O[C@H]3[C@H](O)[C@@H](O)[C@@H](O[C@H]4[C@H](O)[C@@H](O)[C@@H](O[C@H]5[C@H](O)[C@@H](O)[C@@H](O[C@H]6[C@H](O)[C@@H](O)[C@@H](O[C@H]7[C@H](O)[C@@H](O)[C@@H](O[C@H]8[C@H](O)[C@@H](O)[C@@H](O[C@H]1[C@H](O)[C@H]2O)O[C@@H]8COCC(C)O)O[C@@H]7COCC(C)O)O[C@@H]6COCC(C)O)O[C@@H]5COCC(C)O)O[C@@H]4COCC(C)O)O[C@@H]3COCC(C)O (stereo partly drawn) [2-HYDROXYPROPYL-BETA-CYCLODEXTRIN]
Not Active: IC50 [1] | IC50 [2] | Ki [2] | IC50 (Cannabinoid receptor 1) | IC50 [3] | IC50 [4] | IC50 (Adenosine receptor A2a)

NC(=O)c1cccc(N)c1 [3-AMINOBENZAMIDE]
Not Active: IC50 [1] | IC50 [2] | Ki [2] | IC50 (Cannabinoid receptor 1) | IC50 [3] | IC50 [4] | IC50 (Adenosine receptor A2a)

C[C@H]1O[C@H](O[C@H]2[C@H](O)[C@@H](O)[C@@H](O[C@H]3[C@H](O)[C@@H](O)C(O)O[C@@H]3CO)O[C@@H]2CO)[C@H](O)[C@@H](O)[C@@H]1N[C@H]1C=C(CO)[C@@H](O)[C@H](O)[C@H]1O (stereo not given in full) [ACARBOSE]
Not Active: IC50 [1] | IC50 [2] | Ki [2] | IC50 (Cannabinoid receptor 1) | IC50 [3] | IC50 [4] | IC50 (Adenosine receptor A2a)

CC[C@H]1[C@@H]2C[C@H]3[C@@H]4N(C)c5ccccc5[C@]45C[C@@H]([C@@H]2[C@H]5O)N3[C@@H]1O [AJMALINE]
Not Active: IC50 [1] | IC50 [2] | Ki [2] | IC50 (Cannabinoid receptor 1) | IC50 [3] | IC50 [4] | IC50 (Adenosine receptor A2a)

NC12CC3CC(CC(C3)C1)C2 [AMANTADINE]
Not Active: IC50 [1] | IC50 [2] | Ki [2] | IC50 (Cannabinoid receptor 1) | IC50 [3] | IC50 [4] | IC50 (Adenosine receptor A2a)

NCCCNCCSP(=O)(O)O [AMIFOSTINE]
Not Active: IC50 [1] | IC50 [2] | Ki [2] | IC50 (Cannabinoid receptor 1) | IC50 [3] | IC50 [4] | IC50 (Adenosine receptor A2a)

COc1cc(OC)c(C(=O)CCCN2CCCC2)c(OC)c1 [BUFLOMEDIL]
Not Active: IC50 [2] | Ki [2] | IC50 (Cannabinoid receptor 1) | IC50 [3] | IC50 [4] | IC50 (Adenosine receptor A2a)

Cn1c(=O)c2c(ncn2C)n(C)c1=O [CAFFEINE]
Not Active: IC50 [1] | IC50 [2] | Ki [2] | IC50 (Cannabinoid receptor 1) | IC50 [3] | IC50 [4]

CN1CCN(C(c2ccccc2)c2ccccc2)CC1 [CYCLIZINE]
4.64 µM: IC50 ([2]; read-out: IC50)
4.51 µM: Ki ([2]; read-out: Ki)
Not Active: IC50 (Cannabinoid receptor 1) | IC50 [3] | IC50 [4] | IC50 (Adenosine receptor A2a)
